In patent US10287253B2, “Substituted pyrimidines containing acidic groups as TLR7 modulators” (Apros Therapeutics, Inc., priority 2016, dated 2019):
pEC50: −log10 of the molar value.

test system: not listed separately; experiment: Pharmacokinetics experiments: mouse liver-to-serum concentration (L:S); assay type: in vivo; conditions: BALB/c mice, 10 mg/kg p.o., 5 hour post dose
Experimental: BALB/c mice were dosed p.o. with 10 mg/kg compound formulated in 0.5% carboxy methycellulose+0.5% Tween-80 suspension. Mice were bled retro-orbitally at different time points post dose. Blood was processed into serum by centrifugation followed by protein precipitation, reverse-phase gradient elution and MRM detection via ESI+mass spectrometry to determine compound concentration. Animals were sacrificed after the final blood collection (5 hour), liver removed and flash frozen in liquid nitrogen for tissue PK analyses. The liver-to-serum concentration (L:S) at 5 hour post dose is one parameter for identifying compounds with potential enrichment in liver.
Mouse liver-to-serum concentration (L:S) table below provides results.

Structure (SMILES)	L:S at 5 hr (liver-to-serum concentration)
CCCCNc1nc(N)nc(C)c1Cc1cc(Cc2nn[nH]n2)ccc1OC [Compound 3, 5-(5-((2H-tetrazol-5-yl)methyl)-2-methoxybenzyl)-N4-butyl-6-methylpyrimidine-2,4-diamine]	A (A = >100 represents high liver-enrichment)
CCCC[C@@H](CC(=O)O)Nc1nc(N)nc(C)c1Cc1cc(Cc2nn[nH]n2)ccc1OC [Compound 20, (S)-3-((5-(5-((2H-tetrazol-5-yl)methyl)-2-methoxybenzyl)-2-amino-6-methylpyrimidin-4-yl)amino)heptanoic acid]	A (A = >100 represents high liver-enrichment)
CCCC[C@@H](CCS(C)(=O)=O)Nc1nc(N)nc(C)c1Cc1cc(Cc2nn[nH]n2)ccc1OC [Compound 23, (S)-5-(5-((2H-tetrazol-5-yl)methyl)-2-methoxybenzyl)-6-methyl-N^4-(1-(methylsulfonyl)heptan-3-yl)pyrimidine-2,4-diamine]	A (A = >100 represents high liver-enrichment)
CCCC[C@@H](CCSC)Nc1nc(N)nc(C)c1Cc1cc(Cc2nn[nH]n2)ccc1OC [Compound 22, (S)-5-(5-((2H-tetrazol-5-yl)methyl)-2-methoxybenzyl)-6-methyl-N^4-(1-(methylthio)heptan-3-yl)pyrimidine-2,4-diamine]	A (A = >100 represents high liver-enrichment)

molecular target: human TLR7 (hTLR7) (Homo sapiens (Human), UniProt Q9NYK1); experiment: HEK TLR7 assay (HEK-Blue hTLR7 cells, NF-kB/AP-1 SEAP reporter); assay type: cell-based; conditions: Compound 20 vs Compound 20C
Text: HEK-Blue™ TLR7 cells were purchased from Invivogen (San Diego, Calif.). The following description was taken from the product information sheet.
“HEK-Blue™ hTLR7 cells are designed for studying the stimulation of human TLR7 (hTLR7) by monitoring the activation of NF-kB. HEK-Blue™ hTLR7 cells were obtained by co-transfection of the hTLR7 gene and an optimized secreted embryonic alkaline phosphatase (SEAP) reporter gene into HEK293 cells. The SEAP reporter gene is placed under the control of the IFN-b minimal promoter fused to five NF-kB and AP-1-binding sites. Stimulation with a TLR7 ligand activates NF-kB and AP-1 which induce the production of SEAP, which is detected by the HEK-Blue™ Detection cell culture medium.”
A typical assay protocol involved the following steps: • 1. Cells were cultured according to the product information sheet. • 2. 10 mM compound stock in DMSO were first diluted to 3 mM and then 3-fold serially diluted using DMSO to afford a 10-pt dilution. • 3. 3 μl of the diluted DMSO were added to 57 μl HEK-Blue™ Detection media for a further 20-fold dilution. • 4. 10 μl of the diluted compound in assay media were added into 40 μl cell culture (in HEK-Blue™ Detection media) in 384-well plate. Final cell concentration=8,000 cells per well. • 5. The plates were incubated at 37° C. in 5% CO2 for 16 h. SEAP was determined using a spectrophotometer at 620-655 nm.

Chain of human TLR7 (hTLR7) (Q9NYK1 27-1049): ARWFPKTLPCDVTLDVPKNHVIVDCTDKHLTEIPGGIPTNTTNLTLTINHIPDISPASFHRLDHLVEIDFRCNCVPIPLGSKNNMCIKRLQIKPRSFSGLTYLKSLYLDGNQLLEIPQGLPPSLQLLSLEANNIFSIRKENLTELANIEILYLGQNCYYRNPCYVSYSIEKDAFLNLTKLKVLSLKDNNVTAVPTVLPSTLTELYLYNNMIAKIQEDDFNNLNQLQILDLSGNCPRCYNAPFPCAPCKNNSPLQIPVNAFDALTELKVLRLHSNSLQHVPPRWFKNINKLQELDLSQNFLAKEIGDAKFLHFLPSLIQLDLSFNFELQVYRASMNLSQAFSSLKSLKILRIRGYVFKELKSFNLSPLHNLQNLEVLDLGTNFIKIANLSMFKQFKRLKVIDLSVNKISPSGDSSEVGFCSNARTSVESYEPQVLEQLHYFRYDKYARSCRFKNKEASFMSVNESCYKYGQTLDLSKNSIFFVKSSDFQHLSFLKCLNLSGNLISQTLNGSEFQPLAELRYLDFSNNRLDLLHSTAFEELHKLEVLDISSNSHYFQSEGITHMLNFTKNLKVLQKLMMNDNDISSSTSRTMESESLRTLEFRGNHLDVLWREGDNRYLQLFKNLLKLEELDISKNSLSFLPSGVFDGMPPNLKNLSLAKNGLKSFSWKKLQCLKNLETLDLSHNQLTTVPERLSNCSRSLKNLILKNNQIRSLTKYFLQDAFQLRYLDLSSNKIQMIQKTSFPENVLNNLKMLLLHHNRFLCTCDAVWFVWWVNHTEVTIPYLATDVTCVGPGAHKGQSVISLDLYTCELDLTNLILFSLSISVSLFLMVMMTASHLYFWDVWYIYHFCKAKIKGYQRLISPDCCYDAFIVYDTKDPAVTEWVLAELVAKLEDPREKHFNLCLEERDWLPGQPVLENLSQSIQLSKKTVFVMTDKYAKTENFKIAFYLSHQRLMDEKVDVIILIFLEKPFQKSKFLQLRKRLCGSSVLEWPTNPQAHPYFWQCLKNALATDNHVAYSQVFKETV

potency of (S)-enantiomer relative to (R)-enantiomer (Compound 20C) in the HEK-TLR7 assay	Structure (SMILES)
> 10 fold	CCCC[C@@H](CC(=O)O)Nc1nc(N)nc(C)c1Cc1cc(Cc2nn[nH]n2)ccc1OC [Compound 20, (S)-3-((5-(5-((2H-tetrazol-5-yl)methyl)-2-methoxybenzyl)-2-amino-6-methylpyrimidin-4-yl)amino)heptanoic acid]

same assay, conditions: HEK-Blue hTLR7 cells, 16 h incubation, SEAP read at 620-655 nm

pEC50	Structure (SMILES)
6.00 to 7.00	CCCCNc1nc(N)nc(C)c1Cc1cc(Cc2nn[nH]n2)ccc1OC [Compound 3, 5-(5-((2H-tetrazol-5-yl)methyl)-2-methoxybenzyl)-N4-butyl-6-methylpyrimidine-2,4-diamine]
6.00 to 7.00	CCCC[C@@H](CCc1nn[nH]n1)Nc1nc(N)nc(C)c1Cc1ccccc1OC [Compound 36, (S)—N^4-(1-(2H-tetrazol-5-yl)heptan-3-yl)-S-(2-methoxybenzyl)-6-methylpyrimidine-2,4-diamine]
6.00 to 7.00	CCCC[C@@H](CC(=O)O)Nc1nc(N)nc(C)c1Cc1cc(Cc2nn[nH]n2)ccc1OC [Compound 20, (S)-3-((5-(5-((2H-tetrazol-5-yl)methyl)-2-methoxybenzyl)-2-amino-6-methylpyrimidin-4-yl)amino)heptanoic acid]
5.00 to 6.00	CCCCNc1nc(N)nc(CCC(=O)O)c1CCc1ccc(OC)cc1 [Compound 19, 3-(2-amino-6-(butylamino)-5-(4-methoxyphenethyl)pyrimidin-4-yl)pro-panoic acid]
6.00 to 7.00	CCCC[C@@H](CCS(C)(=O)=O)Nc1nc(N)nc(C)c1Cc1cc(CC(=O)O)ccc1OC [Compound 51, (S)-2-(3-((2-amino-4-methyl-6-((1-(methylsulfonyl)heptan-3-yl)amino)pyrimidin-5-yl)methyl)-4-methoxyphenyl)acetic acid]
5.00 to 6.00	CCCCNc1nc(N)nc(C)c1Cc1ccc(CCC(=O)O)cc1OC [Compound 1, 3-(4-((2-amino-4-(butylamino)-6-methylpyrimidin-5-yl)methyl)-3-methoxyphenyl)propanoic acid]
6.00 to 7.00	CCCCNc1nc(N)nc(C)c1Cc1cc(C(=O)NCCS(=O)(=O)O)ccc1OC [Compound 16, 2-(3-((2-amino-4-(butylamino)-6-methylpyrimidin-5-yl)methyl)-4-methoxybenzamido)ethane-1-sulfonic acid]
5.00 to 6.00	CCCC[C@@H](CCO)Nc1nc(N)nc(CCC(=O)O)c1OC [Compound 21, (S)-3-(2-amino-6-((1-hydroxyheptan-3-yl)amino)-5-methoxypyrimidin-4-yl)propanoic acid]
5.00 to 6.00	CCCCNc1nc(N)nc(C)c1Cc1cc(Cc2nnn(CC(=O)O)n2)ccc1OC [Compound 5, 2-(5-(3-((2-amino-4-(butylamino)-6-methylpyrimidin-5-yl)methyl)-4-methoxybenzyl)-2H-tetrazol-2-yl)acetic acid]
5.00 to 6.00	CCCCNc1nc(N)nc(C)c1Cc1ccc(Cc2nn[nH]n2)cc1OC [Compound 2, 5-(4-((2H-tetrazol-5-yl)methyl)-2-methoxybenzyl)-N4-butyl-6-methylpyrimidine-2,4-diamine]
> 7.00	CCCC[C@@H](CCSC)Nc1nc(N)nc(CCC(=O)O)c1Cc1ccccc1OC [Compound 38, (S)-3-(2-amino-5-(2-methoxybenzyl)-6-((1-(methylthio)heptan-3-yl)amino)pyrimidin-4-yl)propanoic acid]
6.00 to 7.00	CCC[C@@H](CO)Nc1nc(N)nc(C)c1Cc1cc(Cc2nn[nH]n2)ccc1OC [Compound 8, (S)-2-((5-(5-((2H-tetrazol-5-yl)methyl)-2-methoxybenzyl)-2-amino-6-methylpyrimidin-4-yl)amino)pentan-1-ol]
6.00 to 7.00	CCCCNc1nc(N)nc(C)c1Cc1cc(C(=O)NCCCC(=O)O)ccc1OC [Compound 25, 4-(3-((2-amino-4-(butylamino)-6-methylpyrimidin-5-yl)methyl)-4-methoxybenzamido)butanoic acid]
5.00 to 6.00	CCCCNc1nc(N)nc(C)c1Cc1cc(C2(C(=O)O)CC2)ccc1OC [Compound 14, 1-(3-((2-amino-4-(butylamino)-6-methylpyrimidin-5-yl)methyl)-4-methoxyphenyl)cyclopropane-1-carboxylic acid]
6.00 to 7.00	CCCCNc1nc(N)nc(CCc2nn[nH]n2)c1Cc1ccccc1OC [Compound 37, 6-(2-(2H-tetrazol-5-yl)ethyl)-N^4-butyl-5-(2-methoxybenzyl)pyrimidine-2,4-diamine]
5.00 to 6.00	CCCCNc1nc(N)nc(C)c1Sc1cc(Cc2nn[nH]n2)ccc1OC [Compound 31, 5-((5-((2H-tetrazol-5-yl)methyl)-2-methoxyphenyl)thio)-N^4-butyl-6-methylpyrimidine-2,4-diamine]
6.00 to 7.00	CCCC[C@@H](CCOC)Nc1nc(N)nc(CCC(=O)O)c1Cc1cc(Cc2nn[nH]n2)ccc1OC [Compound 49, (S)-3-(5-(5-((2H-tetrazol-5-yl)methyl)-2-methoxybenzyl)-2-amino-6-((1-methoxyheptan-3-yl)amino)pyrimidin-4-yl)propanoic acid]
6.00 to 7.00	CCCCCNc1nc(N)nc(C)c1Cc1cc(Cc2nn[nH]n2)ccc1OC [Compound 26, 5-(5-((2H-tetrazol-5-yl)methyl)-2-methoxybenzyl)-6-methyl-M-pentylpyrimidine-2,4-diamine]
6.00 to 7.00	CCCC[C@@H](CCS(C)(=O)=O)Nc1nc(N)nc(CCC(=O)O)c1Cc1cc(CC(=O)O)ccc1OC [Compound 50, (S)-3-(2-amino-5-(5-(carboxymethyl)-2-methoxybenzyl)-6-((1-(methylsulfonyl)heptan-3-yl)amino)pyrimidin-4-yl)propanoic acid]
> 7.00	CCCC[C@@H](CCSC)Nc1nc(N)nc(CCC(=O)O)c1Cc1cc(Cc2nn[nH]n2)ccc1OC [Compound 48, (S)-3-(5-(5-((2H-tetrazol-5-yl)methyl)-2-methoxybenzyl)-2-amino-6-((1-(methylthio)-heptan-3-yl)amino)pyrimidin-4-yl)propanoic acid]
6.00 to 7.00	CCCC[C@@H](CCO)Nc1nc(N)nc(CCC(=O)O)c1Cc1ccccc1OC [Compound 27, (S)-3-(2-amino-6-((1-hydroxyheptan-3-yl)amino)-5-(2-methoxybenzyl)-pyrimidin-4-yl)propanoic acid]
5.00 to 6.00	CCCC[C@H](CC(=O)O)Nc1nc(N)nc(C)c1Cc1cc(Cc2nn[nH]n2)ccc1OC [Compound 20C, (R)-3-((5-(5-((2H-tetrazol-5-yl)methyl)-2-methoxybenzyl)-2-amino-6-methylpyrimidin-4-yl)amino)heptanoic acid]
5.00 to 6.00	CCCCNc1nc(N)nc(C)c1Cc1cc(CCC(=O)O)ccc1OC [Compound 4, 3-(3-((2-amino-4-(butylamino)-6-methylpyrimidin-5-yl)methyl)-4-methoxyphenyl)propanoic acid]
5.00 to 6.00	CCCCNc1nc(N)nc(C)c1Cc1cc(C(=O)NCCCc2nn[nH]n2)ccc1OC [Compound 28, N-(3-(2H-tetrazol-5-yl)propyl)-3-((2-amino-4-(butylamino)-6-methyl-pyrimidin-5-yl)methyl)-4-methoxybenzamide]
5.00 to 6.00	CCCCNc1nc(N)nc(C)c1Cc1cc(CP(=O)(O)O)ccc1OC [Compound 7, (3-((2-amino-4-(butylamino)-6-methylpyrimidin-5-yl)methyl)-4-methoxybenzyl)phosphonic acid]
5.00 to 6.00	CCCCNc1nc(N)nc(C)c1Cc1cc(Cc2nnnn2CC(=O)O)ccc1OC [Compound 6, 2-(5-(3-((2-amino-4-(butylamino)-6-methylpyrimidin-5-yl)methyl)-4-methoxybenzyl)-1H-tetrazol-1-yl)acetic acid]
6.00 to 7.00	CCCCNc1nc(N)nc(CCCO)c1Cc1ccccc1OC [Compound 47, 3-(2-amino-6-(butylamino)-5-(2-methoxybenzyl)pyrimidin-4-yl)propan-1-ol]
6.00 to 7.00	CCCC(C)Nc1nc(N)nc(C)c1Cc1cc(Cc2nn[nH]n2)ccc1OC (stereo not drawn) [Compound 39, 5-(5-((2H-tetrazol-5-yl)methyl)-2-methoxybenzyl)-6-methyl-N^4-(pentan-2-yl)pyrimidine-2,4-diamine]
